Assay results published in PubChem BioAssay AID2060894 (Molecular Pharmacology Branch, DTP, NCI, 2025).

Test system: K12877-001-R-J1-PDC complex spheroid viability
Assay: Anticancer human tumor K12877-001-R-J1-PDC patient-derived lung adenocarcinoma cell line growth inhibition [RAS]
Settings: for IC50: curve of first compound; for viability, T/C: stronger effect = lower value; active means viability on the fitted dose curve at most 10% of control; inactive means the rest
In short: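 Tumour cells grown as complex spheroids with HUVEC endothelial cells and mesenchymal stem cells, treated with RAS pathway inhibitor combinations. Each agent spans half-log steps from near clinical Cmax, or 10 microM where Cmax is unknown.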
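Further: spheroids exposed to agents for one week before readout.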
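Wherever viability, T/C is given: tumour cells co-cultured with HUVEC and mesenchymal stem cells in spheroids.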

C=CC(=O)N1CCN(c2nc(OCC3CCCN3C)nc3c(F)c(-c4nc(N)cc(C)c4C(F)(F)F)c(Cl)cc23)C(C)C1 (centres undefined) + CCn1c(-c2cc(N3CCN(C)CC3)cnc2C(C)OC)c2c3cc(ccc31)-c1csc(n1)CC(NC(=O)C1CC1C)C(=O)N1CCCC(N1)C(=O)OCC(C)(C)C2
inactive: viability, T/C (second compound 0.000949 µM, first compound 0.00316 µM) 80.8% | viability, T/C (second compound 0.000949 µM, first compound 0.01 µM) 71.5% | viability, T/C (second compound 0.000949 µM, first compound 0.0316 µM) 78.4% | viability, T/C (second compound 0.000949 µM, first compound 0.1 µM) 69.2% | viability, T/C (second compound 0.000949 µM, first compound 0.316 µM) 69.5% | viability, T/C (second compound 0.000949 µM, first compound 1 µM) 68% | viability, T/C (second compound 0.003 µM, first compound 0.00316 µM) 66.2% | viability, T/C (second compound 0.003 µM, first compound 0.01 µM) 66.7% | viability, T/C (second compound 0.003 µM, first compound 0.0316 µM) 66.4% | viability, T/C (second compound 0.003 µM, first compound 0.1 µM) 60.6% | viability, T/C (second compound 0.003 µM, first compound 0.316 µM) 62.7% | viability, T/C (second compound 0.003 µM, first compound 1 µM) 67% | viability, T/C (second compound 0.00949 µM, first compound 0.00316 µM) 69.7% | viability, T/C (second compound 0.00949 µM, first compound 0.01 µM) 62% | viability, T/C (second compound 0.00949 µM, first compound 0.0316 µM) 70.1% | viability, T/C (second compound 0.00949 µM, first compound 0.1 µM) 76.1% | viability, T/C (second compound 0.00949 µM, first compound 0.316 µM) 63.6% | viability, T/C (second compound 0.00949 µM, first compound 1 µM) 58.2% | viability, T/C (second compound 0.03 µM, first compound 0.00316 µM) 93.4% | viability, T/C (second compound 0.03 µM, first compound 0.01 µM) 84.5% | viability, T/C (second compound 0.03 µM, first compound 0.0316 µM) 92.3% | viability, T/C (second compound 0.03 µM, first compound 0.1 µM) 81.2% | viability, T/C (second compound 0.03 µM, first compound 0.316 µM) 81.2% | viability, T/C (second compound 0.03 µM, first compound 1 µM) 97.2% | viability, T/C (second compound 0.0949 µM, first compound 0.00316 µM) 116% | viability, T/C (second compound 0.0949 µM, first compound 0.01 µM) 95.8% | viability, T/C (second compound 0.0949 µM, first compound 0.0316 µM) 101% | viability, T/C (second compound 0.0949 µM, first compound 0.1 µM) 102% | viability, T/C (second compound 0.0949 µM, first compound 0.316 µM) 97.6% | viability, T/C (second compound 0.0949 µM, first compound 1 µM) 98% | viability, T/C (second compound 0.3 µM, first compound 0.00316 µM) 96.8% | viability, T/C (second compound 0.3 µM, first compound 0.01 µM) 93.4% | viability, T/C (second compound 0.3 µM, first compound 0.0316 µM) 90.7% | viability, T/C (second compound 0.3 µM, first compound 0.1 µM) 88.6% | viability, T/C (second compound 0.3 µM, first compound 0.316 µM) 84.3% | viability, T/C (second compound 0.3 µM, first compound 1 µM) 91.1%
> 1000 nM: IC50 (second compound 0.000949 µM) | IC50 (second compound 0.003 µM) | IC50 (second compound 0.00949 µM) | IC50 (second compound 0.03 µM) | IC50 (second compound 0.0949 µM) | IC50 (second compound 0.3 µM)

CC1(C)CCC(Nc2ncc(C(F)(F)F)c(-c3c[nH]c4c(P(C)(C)=O)c(C#N)ccc34)n2)CN1 (centres undefined) + CCn1c(-c2cc(N3CCN(C)CC3)cnc2C(C)OC)c2c3cc(ccc31)-c1csc(n1)CC(NC(=O)C1CC1C)C(=O)N1CCCC(N1)C(=O)OCC(C)(C)C2
37.6 nM: IC50 (second compound 0.3 µM)
30.8 nM: IC50 (second compound 0.0949 µM)
45.9 nM: IC50 (second compound 0.003 µM)
inactive: viability, T/C (second compound 0.000949 µM, first compound 0.000949 µM) 84.8% | viability, T/C (second compound 0.000949 µM, first compound 0.003 µM) 77.5% | viability, T/C (second compound 0.000949 µM, first compound 0.00949 µM) 78.1% | viability, T/C (second compound 0.000949 µM, first compound 0.03 µM) 57.4% | viability, T/C (second compound 0.000949 µM, first compound 0.0949 µM) 35.8% | viability, T/C (second compound 0.000949 µM, first compound 0.3 µM) 28% | viability, T/C (second compound 0.003 µM, first compound 0.000949 µM) 73.1% | viability, T/C (second compound 0.003 µM, first compound 0.003 µM) 66.7% | viability, T/C (second compound 0.003 µM, first compound 0.00949 µM) 65.3% | viability, T/C (second compound 0.003 µM, first compound 0.03 µM) 58% | viability, T/C (second compound 0.003 µM, first compound 0.0949 µM) 37.9% | viability, T/C (second compound 0.003 µM, first compound 0.3 µM) 29.1% | viability, T/C (second compound 0.00949 µM, first compound 0.000949 µM) 68.2% | viability, T/C (second compound 0.00949 µM, first compound 0.003 µM) 71.7% | viability, T/C (second compound 0.00949 µM, first compound 0.00949 µM) 61.5% | viability, T/C (second compound 0.00949 µM, first compound 0.03 µM) 50.7% | viability, T/C (second compound 0.00949 µM, first compound 0.0949 µM) 31.8% | viability, T/C (second compound 0.00949 µM, first compound 0.3 µM) 32.1% | viability, T/C (second compound 0.03 µM, first compound 0.000949 µM) 76% | viability, T/C (second compound 0.03 µM, first compound 0.003 µM) 70.6% | viability, T/C (second compound 0.03 µM, first compound 0.00949 µM) 72.4% | viability, T/C (second compound 0.03 µM, first compound 0.03 µM) 50.8% | viability, T/C (second compound 0.03 µM, first compound 0.0949 µM) 37% | viability, T/C (second compound 0.03 µM, first compound 0.3 µM) 36.2% | viability, T/C (second compound 0.0949 µM, first compound 0.000949 µM) 111% | viability, T/C (second compound 0.0949 µM, first compound 0.003 µM) 113% | viability, T/C (second compound 0.0949 µM, first compound 0.00949 µM) 88.6% | viability, T/C (second compound 0.0949 µM, first compound 0.03 µM) 50.5% | viability, T/C (second compound 0.0949 µM, first compound 0.0949 µM) 39.5% | viability, T/C (second compound 0.0949 µM, first compound 0.3 µM) 33.5% | viability, T/C (second compound 0.3 µM, first compound 0.000949 µM) 97.8% | viability, T/C (second compound 0.3 µM, first compound 0.003 µM) 98.7% | viability, T/C (second compound 0.3 µM, first compound 0.00949 µM) 72.6% | viability, T/C (second compound 0.3 µM, first compound 0.03 µM) 53.8% | viability, T/C (second compound 0.3 µM, first compound 0.0949 µM) 42.2% | viability, T/C (second compound 0.3 µM, first compound 0.3 µM) 37%
27.4 nM: IC50 (second compound 0.00949 µM)
45 nM: IC50 (second compound 0.000949 µM)
32.2 nM: IC50 (second compound 0.03 µM)
